Laboratory results as given in patent publication US12454531B2, “Substituted piperazine derivatives useful as T cell activators” (BRISTOL-MYERS SQUIBB COMPANY, priority 2019, dated 2025).
Read-outs that look alike come from different tables or passages of the source.

What was measured:
Human whole blood IFN-γ = experiment: Assay 10: Human Whole Blood IFN-γ Assay; type: cell-based; details: anti-CD3 and anti-CD28 stimulation, 100% = 3 μM reference compound, read-out: INFg Whole Blood Normalized Agonist EC50
Experimental: Assay 10: Human Whole Blood IFN-γ Assay
Human venous whole blood (22.5 μL per well), obtained from healthy donors, was pre-treated with compounds for one hour at 37° C. in a humidified 95% air/5% CO2 incubator. The blood was stimulated with 2.5 μL anti-human CD3 and anti-CD28 mAb at a final concentration of 1 μg/mL each for 24 hours at 37° C. IFN-7 in the supernatants was measured using AlphLISA kit (Cat #AL217).

Human whole blood pERK = experiment: Assay 11: DGK Human Whole Blood pERK Assay; type: cell-based; details: anti-CD3 stimulation, pERK positive within CD8 positive population, starting concentration 20 μM, read-out: DGK HWB pERK IC50
Experimental: Assay 11: DGK Human Whole Blood pERK Assay
Human whole blood ERK phosphorylation assay was performed with human venous whole blood obtained from healthy donors (drawn with Heparin as anti-coagulant). Serial dilutions of compounds (11 points, 3-fold) in DMSO were added to 384 well plates at 20 nL/well using an ECHO 550 acoustic dispenser (Labcyte) to achieve final starting concentration of 20 μM in assay. Heparinized human whole blood was added to the compound plate at 9 μL per well and incubated for one hour at 37° C. in a humidified 95%, air/5% CO2 incubator. After one hour of compound incubation, 1 μL of human anti-CD3 antibody (in-house) in the presence of cross-linking antibody goat anti-mouse IgG (4 μg/mL) was added to the well at 1 μg/mL final concentration for stimulation of pathway and additionally incubated for 15 minutes at 37° C. Stimulation was stopped by adding 90 μL Fix/Lyse buffer (BD 558049). Cells were washed and stained with anti-CD8 PE (BD 555635) antibodies for 60 minutes at room temperature, washed again, and permeabilized on ice using Perm III buffer (BD 558050) for 30 minutes. Cells were then stained with an Alexa Fluor® 647 anti-ERK1/2 Phospho (Thr202/Tyr204) Antibody (Bioleged 675504) for 60 minutes at 1:50 dilution. Samples were washed and resuspended in dPBS containing 1% BSA (dPBS, Gibco 14190136; BSA, Sigma-Aldrich A9205). Samples analyzed using the Intellicyt® iQue Screener PLUS. The pERK activation was quantitated by the percentage of pERK positive population within CD8 positive population.

DGKα [1] = molecular target: T1, DGKα (Homo sapiens (Human), UniProt P23743); experiment: Assay 2: In Vitro DGK Inhibition Assays, Method B (DGKα ADPGLO); type: biochemical; details: 150 μM ATP
Experimental: (§1) Assay 2: In Vitro DGK Inhibition Assays—Method B
(§2) The DGKα and DGKζ reactions were performed using either extruded liposome (DGKα and DGKζ LIPGLO assays) or detergent/lipid micelle substrate (DGKα and DGKζ assays). The reactions were carried out in 50 mM MOPS pH 7.5, 100 mM NaCl, 10 mM MgCl2, 1 μM CaCl2), and 1 mM DTT (assay buffer). The reactions using a detergent/lipid micelle substrate also contained 50 mM octyl B-D-glucopyranoside. The lipid substrate concentrations were 11 mM PS and 1 mM DAG for the detergent/lipid micelle reactions. The lipid substrate concentrations were 2 mM PS, 0.25 mM DAG, and 2.75 mM PC for the extruded liposome reactions (5 mM total lipid). The reactions were carried out in 150 μM ATP. The enzyme concentrations for the DGKα and DGKζ were nM.
(§3) The compound inhibition studies were carried out as follows: 25 nL droplets of each test compound (top concentration 10 mM with 11 point, 3-fold dilution series for each compound) solubilized in DMSO were transferred to wells of a white 1536 well plate (Corning 3725). A 5 mL enzyme/lipid substrate solution at 2× final reaction concentration was prepared by combining 2.5 mL 4× enzyme solution (20 nM DGKα or DGKζ (prepared as described below) in assay buffer) and 2.5 mL of either 4× liposome or 4× detergent/lipid micelle solution (compositions described below) and incubated at room temperature for 10 minutes. Next, 1 μL 2× enzyme/lipid substrate solution was added to wells containing the test compound and reactions were initiated with the addition of 1 μL 300 uM ATP. The reactions were allowed to proceed for 2 hr, after which 2 μL Glo Reagent (Promega V9101) was added and incubated for 40 minutes. Next, 4 μL Kinase Detection Reagent was added and incubated for 30 minutes. Luminescence was recorded using an EnVision microplate reader. […] The compounds were evaluated at 11 concentrations to determine IC50.
The detergent/lipid micelle was prepared by combining 15 g phosphatidylserine (Avanti 840035P) and 1 g diacylglycerol (8008110) and dissolving into 150 mL chloroform in a 2 L round bottom flask. Chloroform was removed under high vacuum by rotary evaporation. The resulting colorless, tacky oil was resuspended in 400 mL 50 mM MOPS pH 7.5, 100 mM NaCl, 20 mM NaF, 10 mM MgCl2, 1 μM CaCl2), 1 mM DTT, and 200 mM octyl glucoside by vigorous mixing. The lipid/detergent solution was split into 5 mL aliquots and stored at −80° C.
(§4) The lipid composition was 5 mol % DAG (Avanti 8008110), 40 mol % PS (Avanti 840035P), and 55 mol % PC (Avanti 850457) at a total lipid concentration of 7-8 mg/mL for the liposome solution. The PC, DAG, and PS were dissolved in chloroform, combined, and dried in vacuo to a thin film. The lipids were hydrated to 20 mM in 50 mM MOPS pH 7.5, 100 mM NaCl, 5 mM MgCl2, and were freeze-thawed five times. The lipid suspension was extruded through a 100 nm polycarbonate filter 10-12 times. Dynamic light scattering was carried out to confirm liposome size (50-60 nm radius). The liposome preparation was stored at 4° C. for as long as four weeks.
Human MA-hDGKα-(S9-S727)-Ct-TVMV-His-pFBgate and full length human DGK-ζ-transcript variant-2-TVMV-His-pFBgate baculovirus samples were generated using the Bac-to-Bac baculovirus expression system (Invitrogen) according to the manufacturer's protocol (note: MA- in name of DGKα reagents indicates two extra amino acids added prior to Ser-9). The DNA used for expression of the DGK-α(9-727) and DGK-C have SEQ ID NOs: 5 and 3, respectively. […]
Target sequence in this assay (P23743 other isoform, or with tags, fused parts or gaps): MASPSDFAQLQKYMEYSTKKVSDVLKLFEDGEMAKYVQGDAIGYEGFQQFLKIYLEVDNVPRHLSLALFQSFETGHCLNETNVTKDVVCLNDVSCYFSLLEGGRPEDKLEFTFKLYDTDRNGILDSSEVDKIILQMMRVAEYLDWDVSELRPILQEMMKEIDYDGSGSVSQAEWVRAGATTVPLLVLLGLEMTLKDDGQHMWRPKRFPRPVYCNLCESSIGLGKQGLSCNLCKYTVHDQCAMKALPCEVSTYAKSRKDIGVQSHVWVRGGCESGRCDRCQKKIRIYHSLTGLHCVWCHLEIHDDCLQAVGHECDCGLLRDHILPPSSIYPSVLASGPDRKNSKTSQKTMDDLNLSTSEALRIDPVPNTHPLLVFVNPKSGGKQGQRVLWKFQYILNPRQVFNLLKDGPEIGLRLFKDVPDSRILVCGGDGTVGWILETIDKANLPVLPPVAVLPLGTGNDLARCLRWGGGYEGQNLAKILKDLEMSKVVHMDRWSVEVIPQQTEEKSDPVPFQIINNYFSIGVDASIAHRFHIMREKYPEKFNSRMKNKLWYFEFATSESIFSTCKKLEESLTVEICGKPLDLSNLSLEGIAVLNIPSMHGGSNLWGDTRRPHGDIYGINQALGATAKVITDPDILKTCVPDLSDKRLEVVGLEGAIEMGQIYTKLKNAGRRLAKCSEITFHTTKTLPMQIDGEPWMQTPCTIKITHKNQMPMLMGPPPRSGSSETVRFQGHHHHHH

DGKα [2] = molecular target: T1, DGKα; experiment: Assay 1: In Vitro DGK Inhibition Assays, Method A (DGKα LIPGLO, extruded liposome); type: biochemical; details: extruded liposome substrate, 150 μM ATP
Experimental: (§5) Assay 1: In Vitro DGK Inhibition Assays—Method A
as §2, with “reactions.” for “reactions (5 mM total lipid).”, “5 nM” for “nM.”
as §3, with “follows: 50” for “follows: 25”, “mL enzyme/substrate” for “mL enzyme/lipid substrate”, “2× enzyme/substrate” for “2× enzyme/lipid substrate”, “for 1” for “for 2”
as §4, with “15.2” for “7-8”, “the 4×” for “the”, “eleven” for “10-12”, “Dynamic light scattering was carried out to confirm liposome size (50-60 nm radius).” left out
(§6) Baculovirus amplification was achieved using infected Sf9 cells at 1:1500 virus/cell ratios, and grown for 65 hours at 27° C. post-transfection.
(§7) The cells were lysed using nitrogen cavitation method with a nitrogen bomb (Parr Instruments), and the lysates were clarified by centrifugation. […] The three steps column chromatography included nickel affinity resin capture (i.e. HisTrap FF crude, GE Healthcare), followed by size exclusion chromatography (i.e. HiLoad 26/600 Superdex 200 prep grade, GE Healthcare for DGK-alpha, and HiPrep 26/600 Sephacryl S 300_HR, GE Healthcare for DGK-zeta). The third step was ion exchange chromatography, and differed for the two isoforms. DGKα was polished using Q-Sepharose anion exchange chromatography (GE Healthcare). DGKζ was polished using SP Sepharose cation exchange chromatography (GE Healthcare). The proteins were delivered at concentrations of ≥2 mg/mL. The formulation buffers were identical for both proteins: 50 mM Hepes, pH 7.2, 500 mM NaCl, 10% v/v glycerol, 1 mM TCEP, and 0.5 mM EDTA.
Target sequence in this assay (P23743 whole entry): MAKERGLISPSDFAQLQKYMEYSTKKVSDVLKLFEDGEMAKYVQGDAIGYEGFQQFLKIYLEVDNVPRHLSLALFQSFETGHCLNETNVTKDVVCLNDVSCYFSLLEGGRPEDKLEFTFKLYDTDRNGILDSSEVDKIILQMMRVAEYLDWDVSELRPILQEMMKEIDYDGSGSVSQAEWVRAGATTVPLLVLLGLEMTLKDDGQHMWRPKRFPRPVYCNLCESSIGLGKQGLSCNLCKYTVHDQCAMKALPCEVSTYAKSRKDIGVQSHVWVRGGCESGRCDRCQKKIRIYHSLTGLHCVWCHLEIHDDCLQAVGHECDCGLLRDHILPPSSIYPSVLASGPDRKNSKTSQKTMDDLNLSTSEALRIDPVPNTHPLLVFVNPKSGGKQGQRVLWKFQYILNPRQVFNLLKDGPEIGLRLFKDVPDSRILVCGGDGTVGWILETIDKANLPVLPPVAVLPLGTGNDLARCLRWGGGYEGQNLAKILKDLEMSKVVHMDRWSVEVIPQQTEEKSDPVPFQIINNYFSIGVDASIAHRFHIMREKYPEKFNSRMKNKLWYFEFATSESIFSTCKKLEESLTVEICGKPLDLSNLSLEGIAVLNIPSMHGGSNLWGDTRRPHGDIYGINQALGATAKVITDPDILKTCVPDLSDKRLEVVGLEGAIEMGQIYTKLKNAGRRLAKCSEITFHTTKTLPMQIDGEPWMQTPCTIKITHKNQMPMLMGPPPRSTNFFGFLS

DGKζ = DGKζ (Homo sapiens (Human), UniProt Q13574); experiment: Assay 1 or 2: In Vitro DGK Inhibition Assays (DGKζ LIPGLO, extruded liposome); type: biochemical; details: extruded liposome substrate, 150 μM ATP
Chain of DGKζ (Q13574 other isoform, or with tags, fused parts or gaps): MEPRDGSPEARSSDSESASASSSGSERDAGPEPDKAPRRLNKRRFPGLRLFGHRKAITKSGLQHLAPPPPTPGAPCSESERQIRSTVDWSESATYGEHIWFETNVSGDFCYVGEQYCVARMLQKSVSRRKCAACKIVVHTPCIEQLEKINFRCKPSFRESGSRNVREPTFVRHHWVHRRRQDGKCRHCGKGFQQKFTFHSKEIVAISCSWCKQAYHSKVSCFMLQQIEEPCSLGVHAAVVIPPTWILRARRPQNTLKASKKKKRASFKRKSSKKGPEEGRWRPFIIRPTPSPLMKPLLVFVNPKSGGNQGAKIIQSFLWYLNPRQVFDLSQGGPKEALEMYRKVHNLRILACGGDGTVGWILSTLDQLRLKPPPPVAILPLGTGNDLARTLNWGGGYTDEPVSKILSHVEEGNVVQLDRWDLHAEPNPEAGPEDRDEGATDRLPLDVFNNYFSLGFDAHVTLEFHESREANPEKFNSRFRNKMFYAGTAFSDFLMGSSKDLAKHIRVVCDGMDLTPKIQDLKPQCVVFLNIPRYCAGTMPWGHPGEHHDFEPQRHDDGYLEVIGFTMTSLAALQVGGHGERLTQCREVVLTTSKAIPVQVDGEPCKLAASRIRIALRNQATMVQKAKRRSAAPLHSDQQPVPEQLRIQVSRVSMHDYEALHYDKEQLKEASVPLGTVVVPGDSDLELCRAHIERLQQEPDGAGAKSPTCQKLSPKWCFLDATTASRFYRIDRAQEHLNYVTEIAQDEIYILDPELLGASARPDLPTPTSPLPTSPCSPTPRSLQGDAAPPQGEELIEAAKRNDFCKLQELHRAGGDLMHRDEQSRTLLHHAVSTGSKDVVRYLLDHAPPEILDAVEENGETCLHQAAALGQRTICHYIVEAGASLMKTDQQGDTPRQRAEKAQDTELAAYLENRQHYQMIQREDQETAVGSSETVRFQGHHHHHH
Experimental: as §5
as §2, with “reactions.” for “reactions (5 mM total lipid).”, “5 nM” for “nM.”
as §3, with “follows: 50” for “follows: 25”, “mL enzyme/substrate” for “mL enzyme/lipid substrate”, “2× enzyme/substrate” for “2× enzyme/lipid substrate”, “for 1” for “for 2”
as §4, with “15.2” for “7-8”, “the 4×” for “the”, “eleven” for “10-12”, “Dynamic light scattering was carried out to confirm liposome size (50-60 nm radius).” left out
as §6, §7, §1
The DGKα and DGKζ reactions were performed using either extruded liposome (DGKα and DGKζ LIPGLO assays) or detergent/lipid micelle substrate (DGKα and DGKζ assays).

Row | Compound | EC50 (Human whole blood IFN-γ; 24 hours) [µM] | IC50 (Human whole blood pERK; Homo sapiens, CD8 positive) [µM] | IC50 (DGKα [1]) [µM] | IC50 (DGKα [2]) [µM] | IC50 (DGKζ) [µM] | EC50 (Human whole blood IFN-γ; Homo sapiens, 24 h) [µM] | IC50 (Human whole blood pERK) [µM]
1 | CC(C)OC(=O)C(c1ccc(F)cc1)N1C[C@H](C)N(c2cc(=O)n(C)c3ccc(C#N)nc23)C[C@H]1C (single isomer, unassigned) [Example 2] | 0.06 | 0.08 |  |  |  |  | 
2 | CC[C@H]1CN(C(C(=O)NCCOC)c2ccc(C(F)(F)F)cc2)[C@H](CC)CN1c1nc(=O)n(C)c2ccc(C#N)nc12 (single isomer, unassigned) [Example 55] |  |  | 0.01 |  |  |  | 
3 | C#CCCC1(CCCOC(=O)C(c2ccc(OC)cc2)N2C[C@H](C)N(c3nc(=O)n(C)c4ccc(C#N)nc34)C[C@H]2C)N=N1 (single isomer, unassigned) [Example 60] |  |  | 0.18 |  |  |  | 
4 | C[C@@H]1CN(c2cc(=O)n(C)c3ccc(C#N)nc23)[C@@H](C)CN1C(C(=O)Nc1ccn(C)n1)c1ccc(F)cc1 (stereo partly drawn) [Example 15, 2-((2R,5S)-4-(6-cyano-1-methyl-2-oxo-1,2-dihydro-1,5-naphthyridin-4-yl)-2,5-dimethylpiperazin-1-yl)-2-(4-fluorophenyl)-N-(1-methyl-1H-pyrazol-3-yl)acetamide] |  |  |  | 279 | 9.84 | 20 | 20
5 | C[C@@H]1CN(c2cc(=O)n(C)c3ccc(C#N)nc23)[C@@H](C)CN1C(C(=O)Nc1ccn(C)n1)c1ccc(F)cc1 (stereo partly drawn) [Example 16, 2-((2R,5S)-4-(6-cyano-1-methyl-2-oxo-1,2-dihydro-1,5-naphthyridin-4-yl)-2,5-dimethylpiperazin-1-yl)-2-(4-fluorophenyl)-N-(1-methyl-1H-pyrazol-3-yl)acetamide] | 14.4 |  |  | 0.5 | 1.34 |  | 5.93
6 | CNC(=O)C(c1ccc(F)cc1)N1C[C@H](C)N(c2cc(=O)n(C)c3ccc(C#N)nc23)C[C@H]1C (stereo partly drawn) [Example 26, 2-((2R,5S)-4-(6-cyano-1-methyl-2-oxo-1,2-dihydro-1,5-naphthyridin-4-yl)-2,5-dimethylpiperazin-1-yl)-2-(4-fluorophenyl)-N-methylacetamide] | 20 | 13.1 |  |  |  |  | 
7 | CC(C)N(C)C(=O)CC(c1ccc(F)cc1)N1C[C@H](C)N(c2cc(=O)n(C)c3ccc(C#N)nc23)C[C@H]1C (stereo partly drawn) [Example 41, 3-[(2R,5S)-4-(6-cyano-1-methyl-2-oxo-1,2-dihydro-1,5-naphthyridin-4-yl)-2,5-dimethylpiperazin-1-yl]-3-(4-fluorophenyl)-N-methyl-N-(propan-2-yl)propanamide] |  | 0.41 |  | 1.14 | 0.39 | 1.59 | 
